Assay results published in patent US12129229B2, “Amarouciaxanthin A esters and uses thereof” (GAT THERAPEUTICS, S.L., priority 2021, dated 2024).

Legend:
[1] = ACX-Ac oral kinetic assay: plasma levels after intragastric administration; format: in vivo, mice Hsd:ICR (CD-1); details: female mice
Protocol: Immunocompetent mice from the strain Hsd:ICR (CD-1) (females, 6-7 weeks old from ENVIGO), were housed under sterile conditions at a constant temperature of 20-22° C. and relative humidity (45-65%) under daily cycles of light/darkness (12 hours). Sterilized water and food were available ad libitum.
Amarouciaxanthin A acetate (ACX-Ac) was dissolved at 1 mg/mL in a suitable vehicle and sterilized by filtration. Animals were weighted before the assay to determine the appropriate dispensing volume at 10 mL/kg. Formulation was administered once, intragastrically, at 10 mg/kg. Blood was collected at different time points, as stated in Table 1. It was extracted either through the facial vein or by intracardiac puncture (end points), on recipients containing 5 μL of 0.5 M EDTA.
Blood samples were analyzed by HPLC-MS/MS following proprietary analytical methods and the concentration of ACX in each sample was determined. A noncompartmental pharmacokinetic analysis was carried out using individual plasma concentrations versus sampling times by means of the PKPlus® software version 2.0 (Simulations Plus, Lancaster, CA 93534, USA).

rodent models = details: Biochem Biophys Res Commun, 2020, 528, 305-310; cited from earlier work

ACX-Ac in plasma samples ([1]; ACX-Ac 10 mg/kg once intragastrically, HPLC-MS/MS, 2 min to 72 h) | area under the concentration-time curve (AUCt) of ACX ([1]; analyte ACX after ACX-Ac 10 mg/kg once intragastrically, noncompartmental analysis) [µM·h] | Cmax ([1]; analyte ACX after ACX-Ac 10 mg/kg once intragastrically, noncompartmental analysis, read-out: maximum observed plasma concentration (Cmax) of ACX) [µM] | Compound | effect on hepatic oxidative stress, inflammation, and fibrosis (rodent models)
not detected | 80.59 | 9.35 | Amarouciaxanthin A acetate [ACX-Ac] | 
 |  |  | CC1=CC(=O)CC(C)(C)[C@@]1(O)CC(=O)/C(C)=C/C=C/C(C)=C/C=C/C=C(C)/C=C/C=C(\C)C=C=C1C(C)(C)C[C@H](O)C[C@@]1(C)O [ACX, Amarouciaxanthin A] | significantly inhibit hepatic oxidative stress, inflammation, and fibrosis
